Measurements: US8153791B2, “Substituted pyrimidinyl oxime kinase inhibitors” (Janssen Pharmaceutica N.V., priority 2005, dated 2012)

What was measured:
EGFR = target: T1, EGFR (Homo sapiens, UniProt P00533); assay: EGFR Kinase Assay; format: biochemical; conditions: for inhibition at 2 µM: test concentration of 2 μM;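 on all read-outs here: recombinant GST-tagged EGFR expressed in Sf9 cells, phosphorylating biotinylated polyGluTyr with γ-33P ATP on Streptavidin Flashplates, 1 h at 30 °C, scintillation counting, inhibition relative to plate maximum and minimum signals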
T1 construct: The intracellular portion of EGFR started at nucleotide 2189 (corresponding to amino acid 667) and ended at the termination codon; made in house; host or cells: Sf9 insect cells (baculovirus)
T1 sequence (P00533 669-1210 limits assumed): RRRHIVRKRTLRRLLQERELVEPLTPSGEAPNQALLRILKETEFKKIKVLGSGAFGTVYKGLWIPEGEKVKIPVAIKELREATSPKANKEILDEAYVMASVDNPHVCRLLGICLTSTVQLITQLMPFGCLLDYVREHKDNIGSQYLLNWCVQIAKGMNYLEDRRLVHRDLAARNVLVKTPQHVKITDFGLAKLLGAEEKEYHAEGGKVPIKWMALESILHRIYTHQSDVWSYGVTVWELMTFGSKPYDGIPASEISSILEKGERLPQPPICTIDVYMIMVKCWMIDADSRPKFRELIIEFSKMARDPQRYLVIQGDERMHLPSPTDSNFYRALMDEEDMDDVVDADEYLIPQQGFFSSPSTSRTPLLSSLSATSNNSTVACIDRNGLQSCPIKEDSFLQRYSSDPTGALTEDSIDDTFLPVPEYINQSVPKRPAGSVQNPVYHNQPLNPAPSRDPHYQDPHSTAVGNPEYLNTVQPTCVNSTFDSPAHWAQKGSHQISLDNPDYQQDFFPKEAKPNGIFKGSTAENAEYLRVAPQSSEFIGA

HER-2 = target: T2, HER-2 (Homo sapiens, UniProt P04626); assay: HER-2 Kinase Assay; format: biochemical; conditions: for IC50: read-out: HER2 IC50;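 on all read-outs here: HER2 kinase reaction read by scintillation counting, inhibition scaled between maximum and minimum signals set on each plate, IC50 from inhibition against log concentration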
T2 construct: purchased Proqinase (Freiburg, Germany)
T2 sequence (P04626 679-1255): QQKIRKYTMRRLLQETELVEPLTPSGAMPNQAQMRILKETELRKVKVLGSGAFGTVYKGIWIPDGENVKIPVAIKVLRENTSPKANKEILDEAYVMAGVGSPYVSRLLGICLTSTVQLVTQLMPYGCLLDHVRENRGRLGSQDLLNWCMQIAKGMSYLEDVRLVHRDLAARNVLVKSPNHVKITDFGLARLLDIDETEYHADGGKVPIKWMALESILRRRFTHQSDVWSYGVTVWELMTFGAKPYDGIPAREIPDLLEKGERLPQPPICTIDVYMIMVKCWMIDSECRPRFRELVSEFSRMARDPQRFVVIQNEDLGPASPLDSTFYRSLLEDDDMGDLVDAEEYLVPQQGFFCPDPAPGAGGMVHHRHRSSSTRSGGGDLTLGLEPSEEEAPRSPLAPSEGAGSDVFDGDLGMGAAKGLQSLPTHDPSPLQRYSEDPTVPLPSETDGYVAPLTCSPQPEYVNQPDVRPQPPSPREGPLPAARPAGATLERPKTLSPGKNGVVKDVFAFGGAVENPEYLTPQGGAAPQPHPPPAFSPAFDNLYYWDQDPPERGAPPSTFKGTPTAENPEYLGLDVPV

Structure (SMILES) | IC50 (EGFR) [nM] | IC50 (HER-2) [nM] | inhibition at 2 µM (EGFR) [%] | inhibition at 1 µM (HER-2; test concentration of 1 μM, read-out: HER2 % inhibition) [%]
CO/N=C/c1c(N)ncnc1Nc1ccc(Oc2cccnc2)c(C)c1 [Cpd 13, (5E)-4-amino-6-[3-methyl-4-(pyridin-3-yloxy)-phenylamino]-pyrimidine-5-carbaldehyde O-methyl-oxime] | 200 | 100 | – | –
CON=Cc1c(N)ncnc1NCc1ccc2c(c1)OCO2 [Cpd 121, 4-amino-6-[(benzo[1,3]dioxol-5-ylmethyl)-amino]-pyrimidine-5-carbaldehyde O-methyl-oxime] | – | > 10000 | – | –
CON=Cc1c(N)ncnc1Nc1ccc(OC)cc1 [Cpd 120, 4-amino-6-(4-methoxy-phenylamino)-pyrimidine-5-carbaldehyde O-methyl-oxime] | – | 7920 | 15 | –
CON=Cc1c(N)ncnc1NC1CCCc2ccccc21 (stereo not shown) [Cpd 125, 4-amino-6-(1,2,3,4-tetrahydro-naphthalen-1-ylamino)-pyrimidine-5-carbaldehyde O-methyl-oxime] | – | – | 42 | 25
CO/N=C/c1c(N)ncnc1Nc1cccc(OCc2ccccc2)c1 [Cpd 28] | 900 | 5500 | – | –
CON=Cc1c(N)ncnc1NC1CCc2ccccc21 (stereo not shown) [Cpd 124, 4-amino-6-(indan-1-ylamino)-pyrimidine-5-carbaldehyde O-methyl-oxime] | – | 2460 | 26 | –
CO/N=C/c1c(N)ncnc1Nc1ccc(OC)c(Cl)c1 [Cpd 63] | 1200 | 1000 | – | –
CCO/N=C/c1c(N)ncnc1N[C@H](C)c1ccccc1 [Cpd 14] | 100 | 3100 | – | –
CO/N=C/c1c(N)ncnc1Nc1ccc2c(c1)OCO2 [Cpd 23] | 1900 | 28500 | – | –
CON=Cc1c(N)ncnc1NCc1ccc(OC)c(OC)c1 [Cpd 122, 4-amino-6-(3,4-dimethoxy-benzylamino)-pyrimidine-5-carbaldehyde O-methyl-oxime] | – | > 100000 | 6 | –
COc1cc(Nc2ncnc(N)c2/C=N/OCC(=O)N2CCOCC2)ccc1Oc1ccccc1 [Cpd 8, (5E)-4-amino-6-(3-methoxy-4-phenoxy-phenylamino)-pyrimidine-5-carbaldehyde O-(2-morpholin-4-yl-2-oxo-ethyl)-oxime] | – | 700 | – | –
CO/N=C/c1c(N)ncnc1Nc1ccc(Oc2ccc(C)nc2)c(C)c1 [Cpd 29, (5E)-4-amino-6-[3-methyl-4-(6-methyl-pyridin-3-yloxy)-phenylamino]-pyrimidine-5-carbaldehyde O-methyl-oxime] | 200 | 200 | – | –
CO/N=C/c1c(N)ncnc1Nc1ccc(OCc2ccccc2)cc1 [Cpd 25, (5E)-4-amino-6-(4-benzyloxy-phenylamino)-pyrimidine-5-carbaldehyde O-methyl-oxime] | 30 | 300 | – | –
CO/N=C/c1c(N)ncnc1Nc1ccc(OC(F)F)cc1 [Cpd 21] | 1500 | 5300 | – | –
CO/N=C/c1c(N)ncnc1Nc1cccc(Cl)c1 [Cpd 59, (5E)-4-amino-6-(3-chloro-phenylamino)-pyrimidine-5-carbaldehyde O-methyl-oxime] | 50 | – | – | –
CO/N=C/c1c(N)ncnc1Nc1ccc(Oc2cccnc2)c(Cl)c1 [Cpd 38, (5E)-4-amino-6-[3-chloro-4-(pyridin-3-yloxy)-phenylamino]-pyrimidine-5-carbaldehyde O-methyl-oxime] | 100 | 50 | – | –
CO/N=C/c1c(N)ncnc1Nc1ccc(Oc2ccccc2)cc1 [Cpd 24, (5E)-4-amino-6-(4-phenoxy-phenylamino)-pyrimidine-5-carbaldehyde O-methyl-oxime] | 90 | 200 | – | –
CNc1ncnc(Nc2ccc(OCc3cccc(F)c3)c(Cl)c2)c1C=NOC [Cpd 39, 4-[3-Chloro-4-(3-fluoro-benzyloxy)-phenylamino]-6-methylamino-pyrimidine-5-carbaldehyde O-methyl-oxime] | – | 14800 | – | –
Nc1ncnc(NCc2ccc3c(c2)OCO3)c1C=NCc1ccc2c(c1)OCO2 [Cpd 119, N-benzo[1,3]dioxol-5-ylmethyl-5-[(benzo[1,3]dioxol-5-ylmethylimino)-methyl]-pyrimidine-4,6-diamine] | – | > 10000 | – | –
CCNc1ncnc(Nc2ccc(OCc3cccc(F)c3)c(Cl)c2)c1/C=N/OC [Cpd 42, (5E)-4-[3-chloro-4-(3-fluoro-benzyloxy)-phenylamino]-6-ethylamino-pyrimidine-5-carbaldehyde O-methyl-oxime] | 7800 | – | – | –
CO/N=C/c1c(N)ncnc1Nc1ccc2oc(Cc3ccccc3)cc2c1 [Cpd 73] | – | 2900 | – | –

Continued, values first:

IC50 (EGFR) [nM] | IC50 (HER-2) [nM] | inhibition at 2 µM (EGFR) [%] | inhibition at 1 µM (HER-2; test concentration of 1 μM, read-out: HER2 % inhibition) [%] | Structure (SMILES)
400 | 3600 | – | – | CCNc1ncnc(Nc2ccc3c(cnn3Cc3cccc(F)c3)c2)c1/C=N/OCC [Cpd 41, (5E)-4-ethylamino-6-[1-(3-fluoro-benzyl)-1H-indazol-5-ylamino]-pyrimidine-5-carbaldehyde O-ethyl-oxime]
200 | – | – | – | CCO/N=C/c1c(N)ncnc1Nc1ccc2c(cnn2Cc2cccc(OC)c2)c1 [Cpd 57]
30 | – | – | – | CCO/N=C/c1c(N)ncnc1Nc1ccc2[nH]c(Cc3cccc(F)c3)nc2c1 [Cpd 58, (5E)-4-amino-6-[2-(3-fluoro-benzyl)-1H-benzoimidazol-5-ylamino]-pyrimidine-5-carbaldehyde O-ethyl-oxime]
40 | 30 | – | – | CCO/N=C/c1c(N)ncnc1Nc1ccc2c(cnn2Cc2cccc(Cl)c2)c1 [Cpd 55, (5E)-4-amino-6-[1-(3-chloro-benzyl)-1H-indazol-5-ylamino]-pyrimidine-5-carbaldehyde O-ethyl-oxime]
100 | 200 | – | – | CCO/N=C/c1c(N)ncnc1Nc1ccc2c(cnn2Cc2ccc(F)cc2)c1 [Cpd 67, (5E)-4-amino-6-[1-(4-fluoro-benzyl)-1H-indazol-5-ylamino]-pyrimidine-5-carbaldehyde O-ethyl-oxime]
20 | 300 | – | – | Nc1ncnc(Nc2ccc3c(cnn3Cc3cccc(F)c3)c2)c1/C=N/OCCOc1ccccc1 [Cpd 31, (5E)-4-amino-6-[1-(3-fluoro-benzyl)-1H-indazol-5-ylamino]-pyrimidine-5-carbaldehyde O-(2-phenoxy-ethyl)-oxime]
10 | 4 | – | – | Nc1ncnc(Nc2ccc3c(cnn3Cc3cccc(F)c3)c2)c1/C=N\OCCCO [Cpd 69, (5Z)-4-amino-6-[1-(3-fluoro-benzyl)-1H-indazol-5-ylamino]-pyrimidine-5-carbaldehyde O-(3-hydroxy-propyl)-oxime]
– | 100 | – | – | Nc1ncnc(Nc2ccc3c(cnn3Cc3cccc(F)c3)c2)c1/C=N/OCC(=O)N1CCOCC1 [Cpd 6, (5E)-4-amino-6-[1-(3-fluoro-benzyl)-1H-indazol-5-ylamino]-pyrimidine-5-carbaldehyde O-(2-morpholin-4-yl-2-oxo-ethyl)-oxime]
200 | – | – | – | CCO/N=C/c1c(N)ncnc1Nc1ccc(OCc2cccc(F)c2)c(OC)c1 [Cpd 62]
– | 10600 | – | – | CCNc1ncnc(Nc2ccc3c(cnn3Cc3cccc(F)c3)c2)c1/C=N/OC [Cpd 40, (5E)-4-ethylamino-6-[1-(3-fluoro-benzyl)-1H-indazol-5-ylamino]-pyrimidine-5-carbaldehyde O-methyl-oxime]
– | 4500 | – | – | CCO/N=C/c1c(N)ncnc1Nc1ccc2nn(Cc3ccccc3)cc2c1 [Cpd 52]
200 | – | – | – | CO/N=C/c1c(N)ncnc1Nc1ccc(OCc2cccc(F)c2)c(OC)c1 [Cpd 61]
